PubChem BioAssay (NCI)
“And” between values parts separate entries of the source, which are not always exact repeats. Equal values may be shown once.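 Cultured in 96-well plates, cells were exposed to test compound for 48 hours across five concentrations. Abbreviation: GI50, concentration required for 50% inhibition of growth. Definition used: TGI = concentration required for complete inhibition of growth.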

What was measured:
Assay in all cases: NCI tumour cell line growth inhibition, 48 h
[1] = tested on: 786-0 renal
[2] = tested on: HT29 colon
[3] = tested on: KM12 colon
[4] = tested on: OVCAR-8 ovarian
[5] = tested on: RPMI-8226 leukemia
[6] = tested on: SK-MEL-5 melanoma
[7] = tested on: SNB-75 CNS
[8] = tested on: SR leukemia
[9] = tested on: TK-10 renal
[10] = tested on: HOP-92 NSCLC

SMILES | GI50 [1] | TGI [1] | GI50 [2] | TGI [2] | GI50 [3] | TGI [3] | GI50 [4] | TGI [4] | GI50 [5] | TGI [5] | GI50 [6] | TGI [6] | GI50 [7] | TGI [7] | GI50 [8] | TGI [8] | GI50 [9] | TGI [9] | GI50 [10] | TGI [10]
O=C1CSC(=S)N1Cc1cccnc1 | 3.67 µM | 11.2 µM | 3.9 µM | 11.9 µM | 2.22 µM | 5.21 µM | 11.3 µM | 38 µM | 3.35 µM | 17.1 µM | 24.5 µM | 71.6 µM | 16.2 µM | 72.5 µM | 3.56 µM | > 100 µM | 2.84 µM | 7.14 µM |  | 
Cc1ccc(/C=C/C(=O)c2ccc(N)cc2)c(C)c1 | 1.88 µM | 3.45 µM |  |  | 4.38 µM | 16.8 µM |  |  | 2.12 µM | 4.99 µM | 9.47 µM | 21.6 µM | 2.01 µM | 7.45 µM |  |  | 3.13 µM | 11.9 µM | 1.96 µM | 4.43 µM
N#CCCN(CCC#N)c1ccc(/C=N\c2nc(-c3ccccc3)cs2)cc1 |  | > 100 µM |  | > 100 µM |  |  |  | > 100 µM |  | > 100 µM |  | > 100 µM |  | > 100 µM |  |  |  | > 100 µM |  | > 100 µM
COc1cc2c3c(n(CCCNC(=O)OCC4c5ccccc5-c5ccccc54)c(=O)c2cc1OC)-c1cc2c(cc1C3=O)OCO2 | 37.7 µM | > 100 µM | > 100 µM | > 100 µM | > 100 µM | > 100 µM | > 93.6 µM | > 100 µM | > 28.3 µM | > 100 µM | 28.2 µM | > 100 µM | 34.8 µM | > 86.4 µM |  |  | > 56.2 µM | > 100 µM | 48.8 µM | > 100 µM
Cn1c(=O)c2[nH]c(C3CC(=O)CC(c4nc5c([nH]4)c(=O)n(C)c(=O)n5C)N3)nc2n(C)c1=O (centres undefined) |  | > 100 µM |  | > 100 µM |  | > 100 µM |  | > 100 µM |  | > 100 µM |  | > 100 µM |  | > 100 µM |  | > 100 µM |  | > 100 µM |  | 
N#CCC12CC=CCC1=C(O)C(=O)c1ccc(O)cc12 (centres undefined) |  | > 100 µM |  | > 100 µM |  | > 100 µM |  | > 100 µM |  | > 100 µM |  | > 100 µM |  | > 100 µM |  | > 100 µM |  | > 100 µM |  | 
N#CCc1ccc(/C(C#N)=C2/OC(=N)C(c3ccc(CC#N)cc3)C2=O)cc1 (centres undefined) |  | > 100 µM |  | > 100 µM |  |  |  | > 100 µM |  | > 100 µM |  | > 100 µM |  | > 100 µM |  |  |  | > 100 µM |  | > 100 µM
COc1ccc(/C(=N\O)c2cc(OC)c(OC)c(OC)c2)c(OC)c1N | 6.77 µM | > 100 µM | 3.4 µM | > 100 µM | 2.11 µM | > 100 µM | 5.52 µM | > 100 µM | 4.44 µM | > 100 µM | 5.32 µM | > 100 µM |  |  |  |  | > 100 µM | > 100 µM | > 100 µM | > 100 µM
CO/N=C(\COc1ccc2c(c1)oc(=O)c1cc(OC)ccc12)c1cccc(OC)c1 | > 100 µM | > 100 µM | > 100 µM | > 100 µM | > 100 µM | > 100 µM | > 100 µM | > 100 µM | > 100 µM | > 100 µM | > 100 µM | > 100 µM | > 100 µM | > 100 µM |  |  | > 100 µM | > 100 µM | > 100 µM | > 100 µM
Cc1ccc(-c2nc3c(C(=O)NCCN(C)C)cccc3[nH]2)cc1 |  | > 100 µM |  | 80.1 µM |  | > 100 µM |  | 78.3 µM |  |  |  | 26.6 µM |  | 52.4 µM |  |  |  | 48.9 µM |  | 32.4 µM
COC(=O)c1c(C)cc2c(c1O)C1(O)C(=O)c3cc4c(c(O)c3C(=O)C1(OC)C(O)C2)C(=O)C=C(NC1OC(C)C(OC)C(O)C1OC)C4=O (centres undefined) |  | 0.202 µM |  | 0.222 µM |  | 0.562 µM |  | 0.14 µM |  | 0.303 µM |  |  |  | 0.277 µM |  |  |  | 0.293 µM |  | 0.443 µM
O=C(Nc1ccc([N+](=O)[O-])cc1C(=O)O)c1ccc([N+](=O)[O-])cc1 |  | > 100 µM |  | > 100 µM |  | 99.5 µM |  | > 100 µM |  | 57.7 µM |  | > 100 µM |  | > 100 µM |  |  |  | > 100 µM |  | 36.6 µM
Cc1nc(N)sc1N=Nc1cc(Cl)c([N+](=O)[O-])cc1Cl |  | > 100 µM |  | 28.7 µM |  | 37.7 µM |  | 36.8 µM |  | 21.8 µM |  | 19.4 µM |  | 30.5 µM |  | 26.5 µM |  | 52.1 µM |  | 
Cc1cc(Cl)ccc1NC(=O)CC1SC(N)=NC1=O (centres undefined) |  | > 100 µM |  | > 100 µM |  | > 100 µM |  | > 100 µM |  | > 100 µM |  | > 100 µM |  | > 100 µM |  |  |  | > 100 µM |  | 
CC(C)(C)c1cn2cccc(C(=O)N3CCN(CC(=O)Nc4ccc(Cl)cc4C(=O)c4ccccc4Cl)CC3)c2n1 | 24.4 µM | 85.2 µM | 3.33 µM | 12.1 µM | 5.68 µM | 22.4 µM | 6.84 µM | 77.4 µM | 2.67 µM | 7.26 µM | 3.62 µM | 12.7 µM | 12.8 µM | 90.2 µM | > 100 µM | > 100 µM | 16 µM | > 100 µM |  | 
C/C1=C\CC[C@@]2(C)O[C@@H]2C[C@@H]2[C@H](C/C(C)=C/CC1)OC(=O)C21CCN=N1 (some centres undefined) | > 100 µM | > 100 µM | > 100 µM | > 100 µM | > 100 µM | > 100 µM | > 100 µM | > 100 µM | > 100 µM | 75 µM and > 100 µM | > 100 µM | 75 µM and > 100 µM | > 100 µM | 75 µM and > 100 µM |  |  | > 100 µM | > 100 µM |  | > 75 µM
CO/N=C(\COc1ccc2c(c1)oc(=O)c1cc(OC)ccc12)c1ccc(F)cc1 | 14.3 µM | 28.7 µM | 16.7 µM | 66.8 µM | 33.7 µM | > 100 µM | 26.7 µM | > 100 µM | 32.8 µM | > 100 µM | 55.6 µM | > 100 µM | 13.4 µM | 27.1 µM |  |  | 14.7 µM | 29.5 µM | 14.4 µM | 37.4 µM
CN(C)CC(C)(C)C(/C=C/c1ccccc1)=N\Nc1ccccc1 |  | 14.8 µM |  | 27.9 µM |  | 26.6 µM |  | 27.5 µM |  | 19.4 µM |  | 20.7 µM |  | 46.8 µM |  |  |  | 3.48 µM |  | 
CC(=O)c1c(O)ccc2c(C)c(C(=O)O)oc12 | > 100 µM | > 100 µM | > 100 µM | > 100 µM | > 100 µM | > 100 µM | > 100 µM | > 100 µM | > 100 µM | > 100 µM | > 100 µM | > 100 µM | > 100 µM | > 100 µM |  |  | > 100 µM | > 100 µM | > 100 µM | > 100 µM
COc1ccc2c(c1)C(=O)/C(=C/c1ccc([N+](=O)[O-])s1)O2 | 1.47 µM | 6.73 µM | 0.502 µM | 2.67 µM | 0.235 µM | 0.51 µM | 0.362 µM | > 100 µM | 0.26 µM | 0.843 µM | 0.326 µM | 1.04 µM | 0.627 µM | 2.47 µM |  |  | 0.767 µM |  | 0.23 µM | 1.23 µM
CCOCC(=O)N[C@H]1CCc2cc(OC(=O)COCC)c(OC)c(OC)c2-c2ccc(SC)c(=O)cc21 | 0.0568 µM | > 100 µM |  | > 100 µM |  |  | 0.0365 µM |  |  | > 100 µM |  |  |  | > 100 µM |  |  | 14.9 µM | > 100 µM |  | 0.08 µM
CN1C(=O)c2cc([N+](=O)[O-])ccc2[C@H]2C(=O)c3cc4c(cc3[C@H]21)OCO4 | 0.0388 µM |  | 0.179 µM | > 43.2 µM | 0.337 µM |  | 0.0702 µM |  | 0.0435 µM |  | 0.0534 µM | 0.176 µM | 0.12 µM | > 100 µM |  |  | 1.28 µM |  | 1.49 µM | 
S=P1(c2ccccc2)Nc2ccc(Cl)cc2N1 (centres undefined) |  | > 100 µM |  | > 100 µM |  | > 100 µM |  |  |  | > 100 µM |  | > 100 µM |  |  |  |  |  | > 100 µM |  | 71.9 µM
C=CCC12CC(=O)C=C1CCC1(C2)OCCO1 (centres undefined) |  | > 100 µM |  |  |  | > 100 µM |  |  |  | > 100 µM |  | > 100 µM |  | > 100 µM |  | > 100 µM |  | > 100 µM |  | 
CCC[CH2][Sn]1([CH2]CCC)[O]C(=O)c2cccc(OC)c2[O]1 | 0.554 µM | 1.91 µM | 0.798 µM | 2.09 µM | 1.1 µM | 2.32 µM | 0.469 µM | 1.71 µM |  |  | 0.722 µM | 2.11 µM | 0.112 µM | 1.26 µM |  |  | 0.316 µM | 0.829 µM | < 0.0456 µM | 0.486 µM
CC1C=CC(C)C2(O)C(=O)NC(O)C12 (centres undefined) |  | > 100 µM |  |  |  | > 100 µM |  | > 100 µM |  | > 100 µM |  | > 100 µM |  | > 100 µM |  | > 100 µM |  | > 100 µM |  | 
O=C1C2C(C(=O)N1c1ccccc1)C1(c3ccccc3)OC2(c2ccccc2)c2ccccc21 (centres undefined) |  | > 100 µM |  | > 100 µM |  | > 100 µM |  | > 100 µM |  | > 100 µM |  | > 100 µM |  | > 100 µM |  |  |  | > 100 µM |  | > 100 µM
